Experimental findings from ChEMBL document CHEMBL3045203, “Synthesis and biological evaluation of some N4-substituted 5-nitroisatin-3-thiosemicarbazones” (Med Chem Res, 2012) are described below.

Data set [1] concerns Lemna aequinoctialis. Description: Phytotoxicity against Lemna aequinoctialis assessed as growth inhibition at 0.015 ug/ml. In kind it is functional. The settings on record: read-out: GI.
For a further data set, the system named is Nakaseomyces glabratus. Description: Antifungal activity against Candida glabrata at 200 ug/ml after 7 days. Format: functional. The conditions noted are these: 168 h.
A further data set has as its system Fusarium solani. Nature of the data set: Antifungal activity against Fusarium solani at 200 ug/ml after 7 days. In kind it is functional. The settings on record: 168 h.
For another data set, the system named is Microsporum canis. Description: Antifungal activity against Arthroderma otae at 200 ug/ml after 7 days. Format: functional. The settings on record: 168 h.
The next data set has as its system Aspergillus flavus. Description: Antifungal activity against Aspergillus flavus at 200 ug/ml after 7 days. In kind it is functional. The settings on record: 168 h.
In another data set the test system is Candida albicans. Nature of the data set: Antifungal activity against Candida albicans at 200 ug/ml after 7 days. In kind it is functional. The settings on record: 168 h.
A short description of data set [2]: Toxicity inArtemia salina (brine shrimp) larvae assessed as mortality after 24 hr. The conditions noted are these: artemia salina, in vivo; read-out: LD50. In kind it is organism-based.
The species entered for data set [3] is Homo sapiens. Description: Inhibition of […] urease using urea as substrate at 0.01 uM preincubated for 5 min before substrate addition measured after 10 min relative to control.
The species entered for data set [4] is Homo sapiens. Description: Inhibition of […] urease using urea as substrate at 0.1 uM preincubated for 5 min before substrate addition measured after 10 min relative to control.
Data set [5] is filed under the species Homo sapiens. Nature of the data set: Inhibition of […] urease using urea as substrate at 1 uM preincubated for 5 min before substrate addition measured after 10 min relative to control.
Data set [6] is filed under the species Homo sapiens. Description: Inhibition of […] urease using urea as substrate at 10 uM preincubated for 5 min before substrate addition measured after 10 min relative to control.
The species entered for data set [7] is Homo sapiens. Description: Inhibition of […] urease using urea as substrate at 100 uM preincubated for 5 min before substrate addition measured after 10 min relative to control.
Data set [8] concerns Lemna aequinoctialis. Nature of the data set: Phytotoxicity against Lemna aequinoctialis assessed as growth inhibition at 5 ug/ml. In kind it is functional. The settings on record: read-out: GI.
The subject of data set [9] is Lemna aequinoctialis. Description: Phytotoxicity against Lemna aequinoctialis assessed as growth inhibition at 50 ug/ml. In kind it is functional. The settings on record: read-out: GI.
Data set [10] has as its system Lemna aequinoctialis. Description: Phytotoxicity against Lemna aequinoctialis assessed as growth inhibition at 500 ug/ml. In kind it is functional. The settings on record: read-out: GI.

As a reminder, the inhibition is the relative decrease from the control value, in per cent.

Activity calls are given as the source filed them. The calls are words filed in the database; no cut-off is given here.

As to `C[n+]1ccc(-c2cc[n+](C)cc2)cc1` [PARAQUAT], the inhibition of growth at 0.015 µg/mL with Lemna aequinoctialis [1] stood at 100%.

As to `O=C1Nc2ccc([N+](=O)[O-])cc2/C1=N/NC(=S)Nc1ccccc1`, the inhibition at 200 µg/mL with Nakaseomyces glabratus came out at 0%; with Fusarium solani, 0%; in the data set on Microsporum canis it was 0%; in the data set on Aspergillus flavus it was 20%; in the data set on Candida albicans, 0%. Also, the LC50 at 24 h in data set [2] is more than 1470 µM. The inhibition in the data set filed under Homo sapiens [3] was 8.8%; in the data set filed under Homo sapiens [4], 5.8%; in the data set listed under Homo sapiens [5], 0.65%; in the data set listed under Homo sapiens [7], 6%. Besides, the inhibition entry in the data set listed under Homo sapiens [6] is “inactive”. Moreover, in the data set with Lemna aequinoctialis [8], the inhibition of growth at 5 µg/mL turned out to be 5%. In the data set with Lemna aequinoctialis [9], the inhibition of growth at 50 µg/mL was 10%. For the same compound, in the data set on Lemna aequinoctialis [10], the inhibition of growth at 500 µg/mL worked out at 20%.
